Results: patent US6455562B1, “Cyclic AMP-specific phosphodiesterase inhibitors” (Icos Corporation, priority 1999, dated 2002)
Like-named read-outs stand apart in the source and are kept apart here.

Legend:
[1] = in vivo; cited from earlier work
[2] = tested on: T1, recombinant human PDE4; test: PDE4 inhibition, IC50 using recombinant human PDE4 (charcoal separation PDE assay); format: biochemical; conditions: read-out: IC50 value versus human recombinant PDE4
T1 construct: other: recombinant human PDE4
Description: The compounds of structural formula (II) were tested for an ability to inhibit PDE4. The ability of a compound to inhibit PDE4 activity is related to the IC50 value for the compound, i.e., the concentration of inhibitor required for 50% inhibition of enzyme activity. The IC50 value for compounds of structural formula (II) were determined using recombinant human PDE4. […]
Phosphodiesterase activity of the preparations was determined as follows. […] The [32P]5′-AMP or [32P]5′-GMP then was quantitatively converted to free [32P]phosphate and unlabeled adenosine or guanosine by the action of snake venom 5′-nucleotidase. […] PDE enzyme was present in quantities that yield <30% total hydrolysis of substrate (linear assay conditions). […] The reaction was stopped by addition of 200 μL of activated charcoal (25 mg/mL suspension in 0.1M NaH2PO4, pH 4) After centrifugation (750 X g for 3 minutes) to sediment the charcoal, a sample of the supernatant was taken for radioactivity determination in a scintillation counter and the PDE activity was calculated.

[3] = tested on: recombinant human PDE4; conditions: reported, prior art; read-out: reported 50% Inhibitory Concentration (IC50) with respect to inhibiting recombinant human PDE4; cited from earlier work

Compound | IC50 [3] [nM] | other results
COc1ccc([C@@H]2CNC(=O)C2)cc1OC1CCCC1 (single isomer, unassigned) [(−)-enantiomer of rolipram, R-rolipram] |  | emetic potential relative to the (+)-enantiomer (S-rolipram) [1]: about ten-fold more emetic
COc1ccc([C@@H]2CN(Cc3ccccc3)C[C@@]2(C)c2nn[nH]n2)cc1OC1CCCC1 [Example 1] |  | IC50 [2]: 7900 nM
COc1ccc(C2CNC(=O)C2)cc1OC1CCCC1 (stereo not shown) [Rolipram] | ~200 | 
COC(=O)N1CC(c2ccc(OC)c(OC3CCCC3)c2)C(C)(C(C)=O)C1 (stereo not shown) [formula (I)] | ~2 | 
